In patent US6376230B1 (dated 2002):

CC1=C(O)CCOC1=O
melting point: 138 to 144 °C (dec.)

CCCCCCC1=C(O)CCOC1=O
melting point: 98 to 99 °C (dec.)
